Experimental data from ChEMBL document CHEMBL5729210, “Benzodiazepine derivatives as RSV inhibitors” (2022).

Experiment: RSV-A Assay: The description is Japanese.

SMILES	EC50
O=C1Nc2ccccc2C(c2ccccc2)=NC1Nc1nnc(-c2ccncn2)o1 (stereo not given)	> 800 nM
Cn1cc(-c2nnc(NC3N=C(c4ccccc4)c4ccccc4NC3=O)o2)cn1 (stereo not given)	in the range around 600 nM
Cc1ccc(-c2nnc(NC3N=C(c4ccccc4)c4ccccc4NC3=O)o2)o1 (stereo not given)	> 800 nM
O=C1Nc2ccccc2C(c2ccccc2)=NC1Nc1nnc(-c2ccc(F)cc2F)o1 (stereo not given)	> 800 nM
CN1CCc2nc(-c3nnc(NC4N=C(c5ccccc5)c5ccccc5NC4=O)o3)sc2C1 (stereo not given)	> 800 nM
CC(=O)N1CCC(c2nnc(NC3N=C(c4ccccc4)c4ccccc4NC3=O)o2)CC1 (stereo not given)	> 800 nM
O=C1Nc2ccccc2C(c2ccccc2)=NC1Nc1nnc(-c2ncccn2)o1 (stereo not given)	> 800 nM
O=C1Nc2ccccc2C(c2ccccc2)=NC1Nc1nnc(-c2cnccn2)o1 (stereo not given)	> 800 nM
O=C1Nc2ccccc2C(c2ccccc2)=NC1Nc1nnc(-c2cscn2)o1 (stereo not given)	in the range around 600 nM
COc1cc(-c2nnc(NC3N=C(c4ccccc4)c4ccccc4NC3=O)o2)ccn1 (stereo not given)	> 800 nM
O=C1Nc2ccccc2C(c2ccccc2)=NC1Nc1nnc(-c2cncs2)o1 (stereo not given)	> 800 nM
O=C1Nc2ccccc2C(c2ccccc2)=NC1Nc1nnc(-c2cncnc2)o1 (stereo not given)	> 800 nM
CN(C)Cc1ccc(-c2nnc(NC3N=C(c4ccccc4)c4ccccc4NC3=O)o2)o1 (stereo not given)	> 800 nM
Cn1ccnc1-c1nnc(NC2N=C(c3ccccc3)c3ccccc3NC2=O)o1 (stereo not given)	> 800 nM
O=C1Nc2ccccc2C(c2ccccc2)=NC1Nc1nnc(-c2ccc3nc[nH]c3c2)o1 (stereo not given)	> 800 nM and in the range around 600 nM
CCOC(=O)c1nnc(NC2N=C(c3ccccc3)c3ccccc3NC2=O)o1 (stereo not given)	> 800 nM
O=C1Nc2ccccc2C(c2ccccc2)=NC1Nc1nnc(-c2cccnn2)o1 (stereo not given)	> 800 nM
O=C1Nc2ccccc2C(c2ccccc2)=NC1Nc1nnc(-c2ccc(=O)[nH]c2)o1 (stereo not given)	> 800 nM
O=C1Nc2ccccc2C(c2ccccc2)=NC1Nc1nnc(-c2cnco2)o1 (stereo not given)	> 800 nM
COc1ccc(-c2nnc(NC3N=C(c4ccccc4)c4ccccc4NC3=O)o2)cn1 (stereo not given)	< 400 nM

SMILES	EC50
COCc1ccc(-c2nnc(NC3N=C(c4ccccc4)c4ccccc4NC3=O)o2)o1 (stereo not given)	> 800 nM
O=C1Nc2ccccc2C(c2ccccc2)=NC1Nc1nnc(-c2ncco2)o1 (stereo not given)	> 800 nM
O=C1Nc2ccccc2C(c2ccccc2)=NC1Nc1nnc(-c2cc[nH]c(=O)c2)o1 (stereo not given)	> 800 nM
CN1CCC(c2nnc(NC3N=C(c4ccccc4)c4ccccc4NC3=O)o2)CC1 (stereo not given)	> 800 nM
COc1cccc(-c2nnc(NC3N=C(c4ccccc4)c4ccccc4NC3=O)o2)n1 (stereo not given)	< 400 nM
O=C1Nc2ccccc2C(c2ccccc2)=NC1Nc1nnc(-c2cc3cccnc3s2)o1 (stereo not given)	> 800 nM
N#Cc1cc(-c2nnc(NC3N=C(c4ccccc4)c4ccccc4NC3=O)o2)ccn1 (stereo not given)	> 800 nM
Cn1nccc1-c1nnc(NC2N=C(c3ccccc3)c3ccccc3NC2=O)o1 (stereo not given)	> 800 nM
O=C1Nc2ccccc2C(c2ccccc2)=NC1Nc1nnc(C2CCNCC2)o1 (stereo not given)	> 800 nM
COCc1cccc(-c2nnc(NC3N=C(c4ccccc4)c4ccccc4NC3=O)o2)n1 (stereo not given)	> 800 nM
O=C1Nc2ccccc2C(c2ccccc2)=NC1Nc1nnc([C@@H]2COCCN2)o1 (stereo not given in full)	> 800 nM
Cn1cnc(-c2nnc(NC3N=C(c4ccccc4)c4ccccc4NC3=O)o2)c1 (stereo not given)	> 800 nM
O=C1Nc2ccccc2C(c2ccccc2)=NC1Nc1nnc([C@H]2COCCN2)o1 (stereo not given in full)	> 800 nM
O=C1Nc2ccccc2C(c2ccccc2)=NC1Nc1nnc(-c2ccc(F)nc2)o1 (stereo not given)	in the range around 600 nM
O=C1Nc2ccccc2C(c2ccccc2)=NC1Nc1nnc(-c2ccnc(F)c2)o1 (stereo not given)	< 400 nM
O=C1Nc2ccccc2C(c2ccccc2)=NC1Nc1nnc(-c2ccncc2)o1 (stereo not given)	in the range around 600 nM
COc1ccnc(-c2nnc(NC3N=C(c4ccccc4)c4ccccc4NC3=O)o2)c1 (stereo not given)	> 800 nM
O=C1Nc2ccccc2C(c2ccccc2)=NC1Nc1nnc(-c2nccs2)o1 (stereo not given)	> 800 nM
COc1ccc(-c2nnc(NC3N=C(c4ccccc4)c4ccccc4NC3=O)o2)nc1 (stereo not given)	in the range around 600 nM
Cc1cc(-c2nnc(NC3N=C(c4ccccc4)c4ccccc4NC3=O)o2)on1 (stereo not given)	> 800 nM
